# Measurements: patent US20140066365A1, “USE OF CALIXARENES ASSOCIATED WITH AN ANTIBIOTIC IN THE TREATMENT OF BACTERIAL INFECTIONS” (priority 2011, published 2014)
# Where two headings read alike, the source gives them in different places.
# Assays:
# [1] = system: Staphylococcus aureus strain ATCC 29213 (wild type); assay: MIC of the compounds used alone, microdilution in a liquid medium (CLSI); format: cell-based; conditions: Staphylococcus aureus
# From the text: (§1) The MICs of the antibiotics were previously defined for each strain, by the method of microdilution in a liquid medium (CLSI (Clinical and Laboratory Standards Institute), 2003).
# [2] = as above; format: cell-based, Staphylococcus aureus; conditions: Staphylococcus aureus, MRSA
# From the text: as §1
# [3] = system: MRSA strain having a resistance to the aminoglycosides and fluoroquinolones (SaR3); assay: as above; format: cell-based, Staphylococcus aureus; conditions: Staphylococcus aureus, MRSA
# From the text: as §1
# [4] = system: MRSA strain without associated resistance (SaR1); assay: as above; format: cell-based, Staphylococcus aureus; conditions: Staphylococcus aureus, MRSA
# From the text: as §1
# [5] = system: Escherichia coli, Staphylococcus aureus and Pseudomonas aeruginosa strains; assay: Chessboard technique, summary statements over all strains and combinations tested; format: cell-based; conditions: strain not stated
# From the text: 1.3. Procedure: Chessboard Technique
# The same procedure is followed for the Cx1. […] Thus 64 ATB/Cx1 combinations are obtained.
# The FIC (Fractional Inhibitory Concentration Index) value is defined by the following formula: […]
# When FIC≦0.5, there is a synergistic effect between antibiotic A and antibiotic B.
# When 0.5<FIC≦1, there is an additive effect between antibiotic A and antibiotic B.
# When 1<FIC≦4, there is an indifferent effect between antibiotic A and antibiotic B.
# When FIC>4, there is an antagonistic effect between antibiotic A and antibiotic B.
# For each strain and each antibiotic/Cx1 combination, the experiments were repeated a minimum of 3 times.
# [6] = system: ESBL-producing strain of Escherichia coli, having an associated resistance to the aminoglycosides (EcR3); assay: MIC of the compounds used alone, microdilution in a liquid medium (CLSI); format: cell-based; conditions: Escherichia coli, antibiotic alone (second value of cell), read-out: Initial MICs
# From the text: as §1
# [7] = system: Escherichia coli strain ATCC 25922 (wild type); assay: as above; format: cell-based; conditions: Escherichia coli, ATCC25922; antibiotic alone (second value of cell); E. coli ATCC 25922; read-out: Initial MICs
# From the text: as §1
# [8] = system: Pseudomonas aeruginosa strain ATCC 27853 (wild type); assay: as above; format: cell-based; conditions: Pseudomonas aeruginosa, ATCC27853; antibiotic alone (second value of cell); P. aeruginosa ATCC 27853; read-out: MIC
# From the text: as §1
# [9] = system: Pseudomonas aeruginosa strain PaR3; assay: as above; format: cell-based; conditions: Pseudomonas aeruginosa, antibiotic alone (second value of cell), read-out: MIC
# From the text: as §1
# [10] = system: cephalosporinase-hyperproducing strain of Escherichia coli (EcR2); assay: as above; format: cell-based; conditions: Escherichia coli, antibiotic alone (second value of cell), read-out: Initial MICs
# From the text: as §1
# [11] = system: mucoid strain of Pseudomonas aeruginosa PaR5; assay: as above; format: cell-based; conditions: Pseudomonas aeruginosa, antibiotic alone (second value of cell), read-out: MIC
# From the text: as §1
# [12] = system: penicillinase-producing strain of Escherichia coli without associated resistance (EcR1); assay: as above; format: cell-based; conditions: Escherichia coli, antibiotic alone (second value of cell), read-out: Initial MICs
# From the text: as §1
# [13] = system: Pseudomonas aeruginosa strain PaR2; assay: microbe, parasite or virus in culture; format: cell-based; conditions: Pseudomonas aeruginosa, antibiotic alone (second value of cell), read-out: MIC
# From the text: as §1
# [14] = system: EcR1: Penicillinase-Producing Escherichia coli without Associated Resistance; assay: Antibiogram, MIC by the VITEK 2 system; format: cell-based; conditions: for MIC: Escherichia coli
# Protocol: (§2) 5.1 EcR1: Penicillinase-Producing Escherichia coli without Associated Resistance The bacterial and antibiogramidentification is carried out by the VITEK 2 system (bioMérieux) and by the disk diffusion technique.
# [15] = system: EcR1: Penicillinase-Producing Escherichia coli without Associated Resistance; assay: Antibiogram by the disk diffusion technique; format: cell-based; conditions: Table A1
# Protocol: as §2
# [16] = system: EcR3: ESBL-Producing Escherichia coli; assay: Antibiogram by the disk diffusion technique; format: cell-based; conditions: for Diameter: Table C1; for diameter in mm: Table C2
# Protocol: The bacterial and antibiogramidentification is carried out by the VITEK 2 system (bioMerieux) and by the disk diffusion technique
# [17] = system: PaR3: Pseudomonas aeruginosa; assay: Antibiogram, MIC by the VITEK 2 system; format: cell-based
# Protocol: The bacterial and antibiogramidentification is carried out by the VITEK 2 system (bioMérieux)
# [18] = system: PaR5: Pseudomonas aeruginosa; assay: Antibiogram by the disk diffusion technique; format: cell-based; conditions: for diameter in mm: disk diffusion inhibition diameter, strain PaR5
# Protocol: (§3) The bacterial and antibiogramidentification is carried out by the VITEK 2 system (bioMérieux) and by the disk diffusion technique
# [19] = system: PaR2: Pseudomonas aeruginosa; format: cell-based; conditions: for Diameter: Table G1; for diameter in mm: Table G2
# Protocol: as §3
# [20] = system: EcR2: Cephalosporinase-Hyperproducing Strain of Escherichia coli; assay: Antibiogram, MIC by the VITEK 1 system; format: cell-based; conditions: Escherichia coli, read-out: MIC
# Protocol: The bacterial and antibiogramidentification is carried out by the VITEK 1 system (bioMérieux) and by the disk diffusion technique
# [21] = ATCC29213, antibiotic alone (second value of cell), S. aureus ATCC 29213, read-out: Initial MICs
# [22] = EcR1, Table A2, read-out: MIC mg/L (diameter in mm)
# [23] = EcR1, VITEK 2, Table A1, read-out: MIC
# [24] = Pseudomonas aeruginosa, Table H2, read-out: MIC
compound,measurement,setting,value
CN(C)c1cc(NC(=O)CNC(C)(C)C)c(O)c2c1C[C@H]1C[C@H]3[C@H](N(C)C)C(O)=C(C(N)=O)C(=O)[C@@]3(O)C(O)=C1C2=O [Tigecycline],MIC,"[1]; ATCC29213, read-out: Initial MICs (mg/L)",0.25 mg/L
same,MIC,[2],0.25 µg/mL
same,MIC,[3],0.25 µg/mL
same,MIC,[4],0.25 µg/mL
same,interaction between the antibiotic and Cx1,[5],synergism
NCC[C@H](O)C(=O)N[C@@H]1C[C@H](N)[C@@H](O[C@H]2O[C@H](CN)[C@@H](O)[C@H](O)[C@H]2O)[C@H](O)[C@H]1O[C@H]1O[C@H](CO)[C@@H](O)[C@H](N)[C@H]1O [Amikacin],MIC,[6],1 µg/mL
same,MIC,[7],0.25 µg/mL
same,MIC,[8],0.5 µg/mL
same,MIC,[9],1 µg/mL
same,MIC,[1]; [21],1 mg/L
same,MIC,[10],0.5 µg/mL
same,MIC,[11],0.5 µg/mL
same,MIC,[12],0.25 µg/mL
same,MIC,[13],1 µg/mL
same,CA-SFM Interpretation,"[14]; EcR1, MIC against Cc CA-SFM 2011",Susceptible
same,CLSI Interpretation,"[14]; EcR1, MIC against Cc CLSI 2011",Susceptible
same,EUCAST Interpretation,"[14]; EcR1, MIC against Cc EUCAST 2011",Susceptible
same,Results,"[14]; EcR1, interpretation of the MIC, Table A1",Susceptible
same,MIC,[14]; [22],≤ 2 mg/L
same,MIC,[14]; [23],≤ 2 mg/L
same,Diameter,"[15]; EcR1, disk diffusion",19 mm
same,Results,"[15]; EcR1, interpretation of the diameter against Dmin Dmax",Susceptible
same,CA-SFM Interpretation,[16]; Cd CA-SFM 2011,Susceptible
same,CLSI Interpretation,[16]; Cd CLSI 2011,Susceptible
same,EUCAST Interpretation,[16]; Cd EUCAST 2011,Susceptible
same,Diameter,[16],17 mm
same,Results,"[16]; Table C1, against Dmin Dmax",Susceptible
same,diameter in mm,[16],17 mm
same,CA-SFM Interpretation,[17]; Cc CA-SFM 2011,Susceptible
same,CLSI Interpretation,[17]; Cc CLSI 2011,Susceptible
same,EUCAST Interpretation,[17]; Cc EUCAST 2011,Susceptible
same,MIC,[17]; [24],4 µg/mL
same,MIC,[17]; Table H1,4 µg/mL
same,Results,[17]; Table H1,Susceptible
same,Diameter,"[18]; PaR5, Table I1",27 mm
same,Results,"[18]; PaR5, Table I1, against Dmin-Dmax",Susceptible
same,diameter in mm,[18],27 mm
same,CA-SFM Interpretation,"[18]; disk diffusion, PaR5, versus critical diameter CA-SFM 2011",Susceptible
same,CLSI Interpretation,"[18]; disk diffusion, PaR5, versus critical diameter CLSI 2011",Susceptible
same,EUCAST Interpretation,"[18]; disk diffusion, PaR5, versus critical diameter EUCAST 2011, for ** antibiotics the disk load differs and the EUCAST interpretation is not applicable",Susceptible
same,CA-SFM Interpretation,[19]; Cd CA-SFM 2011,Susceptible
same,CLSI Interpretation,[19]; Cd CLSI 2011,Susceptible
same,EUCAST Interpretation,[19]; Cd EUCAST 2011,Susceptible
same,Diameter,[19],22 mm
same,Results,"[19]; Table G1, against Dmin-Dmax",Susceptible
same,diameter in mm,[19],22 mm
C[C@@H](O)[C@H]1C(=O)N2C(C(=O)O)=C(SCCN=CN)C[C@H]12 [Imipenem],MIC,[6],0.125 µg/mL
same,MIC,[7],0.125 µg/mL
same,MIC,[8],2 µg/mL
same,MIC,[9],32 µg/mL
same,MIC,[1]; [21],0.015 mg/L
same,MIC,[10],0.125 µg/mL
same,MIC,[11],2 µg/mL
same,MIC,[12],0.125 µg/mL
same,MIC,"[2]; antibiotic alone (second value of cell), SaR4, read-out: MIC",2 µg/mL
same,MIC,"[3]; antibiotic alone (second value of cell), SaR3, read-out: MIC",0.25 µg/mL
same,MIC,"[4]; antibiotic alone (second value of cell), SaR1, read-out: MIC",0.25 µg/mL
same,MIC,[13],2 µg/mL
same,MIC,[14]; [22],≤ 0.5 mg/L
same,MIC,[14]; [23],≤ 1 mg/L
same,MIC,"[20]; EcR2, VITEK 1, Table B1",≤ 4 µg/mL
same,MIC,"[20]; EcR2, Table B2, MIC",≤ 0.5 µg/mL
same,Diameter,[16],27 mm
same,diameter in mm,[16],27 mm
same,MIC,[17]; [24],≥ 16 µg/mL
same,MIC,[17]; Table H1,≧16
same,Diameter,"[18]; PaR5, Table I1",25 mm
same,diameter in mm,[18],25 mm
same,Diameter,[19],27 mm
same,diameter in mm,[19],27 mm
